Where a SMILES comes first, the peptide text is derived from it.
Key:
[1] = tested on: P. aeruginosa ATCC 27853; conditions: ATCC 27853, 500
[2] = tested on: N. gonorrhoeae strain WS1; conditions: strain WS1, 500
[3] = tested on: S. aureus strain 8325-4; conditions: strain 8325-4, 500

Compound | Log Kill (500 μg/ml) P. aeruginosa ATCC 27853 [1] [log] | Log Kill (500 μg/ml) P. aeruginosa ATCC 278533 [1] [log] | Log Kill (500 μg/ml) N. gonorrhoeae strain WS1 [2] [log] | Log Kill (500 μg/ml) N. gonorrhoeae strain WSI [2] [log] | Log Kill (500 μg/ml) S. aureus strain 8325-4 [3] [log]
CC[C@H](C)[C@H](N)C(=O)N[C@H](C(=O)NCC(=O)NCC(=O)N[C@@H](CCCNC(=N)N)C(=O)N[C@@H](CCC(=O)O)C(=O)N[C@@H](CO)C(=O)N[C@@H](CCCNC(=N)N)C(=O)N1CCC[C@H]1C(=O)N[C@@H](Cc1c[nH]cn1)C(=O)N[C@@H](CO)C(=O)N[C@@H](CCCNC(=N)N)C(=O)N1CCC[C@H]1C(=O)N[C@@H](Cc1ccc(O)cc1)C(=O)N[C@@H](CCSC)C(=O)N[C@@H](C)C(=O)N[C@@H](Cc1ccc(O)cc1)C(=O)N[C@@H](CC(C)C)C(=O)N[C@@H](CCC(N)=O)C(=O)N[C@H](C(=O)O)[C@@H](C)CC)[C@@H](C)CC [CG 1-20] (H-IIGGRESRPHSRPYMAYLQI-OH) | 5.507 | 1.0 | 2.57 | 0.43 | 0.3
CC(C)C[C@H](NC(=O)[C@@H](NC(=O)[C@H](Cc1ccccc1)NC(=O)[C@H](CC(=O)O)NC(=O)[C@H](CCC(=O)O)NC(=O)[C@H](CCCNC(=N)N)NC(=O)[C@@H](NC(=O)[C@H](CC(C)C)NC(=O)[C@H](Cc1ccccc1)NC(=O)CNC(=O)CNC(=O)[C@H](CS)NC(=O)[C@H](CCCNC(=N)N)NC(=O)[C@H](CO)NC(=O)[C@H](CCC(N)=O)NC(=O)CNC(=O)[C@H](C)NC(=O)[C@@H]1CCCN1C(=O)[C@H](CO)NC(=O)[C@@H](N)CCC(N)=O)C(C)C)C(C)C)C(=O)O [CG 21-40] (H-QSPAGQSRCGGFLVREDFVL-OH) | -0.034 | – | 0.05 | – | –
CC[C@H](C)[C@H](NC(=O)[C@H](CC(N)=O)NC(=O)[C@H](Cc1c[nH]cn1)NC(=O)[C@H](C)NC(=O)CNC(=O)[C@H](CC(C)C)NC(=O)[C@@H](NC(=O)[C@@H](NC(=O)[C@H](CC(N)=O)NC(=O)[C@@H](NC(=O)[C@H](CC(N)=O)NC(=O)[C@H](CO)NC(=O)CNC(=O)[C@H](Cc1c[nH]c2ccccc12)NC(=O)[C@H](CS)NC(=O)[C@H](Cc1c[nH]cn1)NC(=O)[C@H](C)NC(=O)[C@H](C)NC(=O)[C@@H](N)[C@@H](C)O)[C@@H](C)CC)C(C)C)[C@@H](C)O)C(=O)N[C@@H](CCC(N)=O)C(=O)O [CG 41-60] (H-TAAHCWGSNINVTLGAHNIQ-OH) | 0.5 | – | -0.09 | – | –
CC[C@H](C)[C@H](NC(=O)[C@H](C)NC(=O)[C@H](CCCNC(=N)N)NC(=O)[C@H](CCCNC(=N)N)NC(=O)[C@H](C)NC(=O)[C@@H](NC(=O)[C@@H](NC(=O)[C@H](Cc1c[nH]cn1)NC(=O)[C@H](CCC(N)=O)NC(=O)[C@H](CCC(N)=O)NC(=O)[C@@H](NC(=O)[C@H](CC(N)=O)NC(=O)[C@H](CCC(=O)O)NC(=O)[C@H](CCCNC(=N)N)NC(=O)[C@@H](N)CCCNC(=N)N)[C@@H](C)O)[C@@H](C)CC)[C@@H](C)O)C(=O)N[C@@H](CCCNC(=N)N)C(=O)N[C@@H](Cc1c[nH]cn1)C(=O)N1CCC[C@H]1C(=O)N[C@@H](CCC(N)=O)C(=O)N[C@@H](Cc1ccc(O)cc1)C(=O)O [CG 61-80] (H-RRENTQQHITARRAIRHPQY-OH) | – | 5.15 | 0 | – | 0.58
CC[C@H](C)[C@H](NC(=O)[C@H](CC(=O)O)NC(=O)[C@H](CC(N)=O)NC(=O)[C@H](CCC(N)=O)NC(=O)[C@@H](NC(=O)[C@@H](NC(=O)[C@H](CCCNC(=N)N)NC(=O)[C@H](CCC(N)=O)NC(=O)[C@H](CC(N)=O)NC(=O)[C@H](Cc1ccc(O)cc1)NC(=O)[C@H](CCC(N)=O)NC(=O)[C@@H]1CCCN1C(=O)[C@@H](N)Cc1c[nH]cn1)[C@@H](C)O)[C@@H](C)CC)C(=O)N[C@@H](CCSC)C(=O)N[C@@H](CC(C)C)C(=O)N[C@@H](CC(C)C)C(=O)N[C@@H](CCC(N)=O)C(=O)N[C@@H](CC(C)C)C(=O)N[C@@H](CO)C(=O)N[C@@H](CCCNC(=N)N)C(=O)O [CG 77-96] (H-HPQYNQRTIQNDIMLLQLSR-OH) | 0.06 | – | 0.24 | – | –
CC(C)C[C@H](NC(=O)CNC(=O)[C@H](CCC(=O)O)NC(=O)[C@H](CCC(N)=O)NC(=O)[C@H](C)NC(=O)[C@H](CCCNC(=N)N)NC(=O)[C@@H]1CCCN1C(=O)[C@H](CC(C)C)NC(=O)[C@H](C)NC(=O)[C@@H](NC(=O)[C@@H]1CCCN1C(=O)[C@H](CC(N)=O)NC(=O)[C@@H](NC(=O)[C@H](CC(N)=O)NC(=O)[C@H](CCCNC(=N)N)NC(=O)[C@H](CC(N)=O)NC(=O)[C@H](CCCNC(=N)N)NC(=O)[C@H](CCCNC(=N)N)NC(=O)[C@@H](NC(=O)[C@@H](N)CCCNC(=N)N)C(C)C)C(C)C)C(C)C)C(=O)O [CG 97-116] (H-RVRRNRNVNPVALPRAQEGL-OH) | 5.93 | 0.22 | -0.21 | 0.2 | -0.1
CC(C)C[C@H](NC(=O)[C@@H](NC(=O)CNC(=O)[C@@H]1CCCN1C(=O)[C@@H](N)CCCNC(=N)N)[C@@H](C)O)C(=O)N[C@@H](CS)C(=O)N[C@H](C(=O)N[C@H](C(=O)N[C@@H](C)C(=O)NCC(=O)N[C@@H](Cc1c[nH]c2ccccc12)C(=O)NCC(=O)N[C@@H](CCCNC(=N)N)C(=O)O)C(C)C)[C@@H](C)O [CG 117-129] (H-RPGTLCTVAGWGR-OH) | 0.86 | – | 0.05 | – | 0
CSCC[C@H](NC(=O)[C@H](CO)NC(=O)[C@@H](NC(=O)[C@H](CCCNC(=N)N)NC(=O)CNC(=O)[C@H](Cc1c[nH]c2ccccc12)NC(=O)CNC(=O)[C@H](C)NC(=O)[C@@H](NC(=O)[C@@H](NC(=O)[C@H](CS)NC(=O)[C@H](CC(C)C)NC(=O)[C@@H](NC(=O)CNC(=O)[C@@H]1CCCN1C(=O)[C@@H](N)CCCNC(=N)N)[C@@H](C)O)[C@@H](C)O)C(C)C)C(C)C)C(=O)N[C@@H](CCCNC(=N)N)C(=O)N[C@@H](CCCNC(=N)N)C(=O)NCC(=O)N[C@H](C(=O)O)[C@@H](C)O [CG 117-136] (H-RPGTLCTVAGWGRVSMRRGT-OH) | 5.8 | 5.88 | – | – | 5.34

Source: US5798336A, “Antimicrobial peptides” (priority 1995, dated 1998)
